Measurements reported in ChEMBL document CHEMBL1145625, “QSAR study of mosquito repellents from terpenoid with a six-member-ring” (2008).

System: Culex pipiens
Experiment: Mosquito repellent activity in white mouse assessed as ratio of number of biting mosquito in treated to untreated control at 1.5 hrs
Type: functional

| SMILES | Ratio |
| --- | --- |
| CC(=O)OC1CC(C)CCC1C(C)C (stereo not given) | 38.7 |
| C=C(C)C1CC=C(CCOC(C)=O)CC1 (stereo not given) | 58.5 |
| C=C(C)C1CC=C(CCOC(=O)CC)CC1 (stereo not given) | 63.6 |
| CC1=CCC(C(C)(C)O)CC1OC=O (stereo not given) | 90 |
| CC(=O)OCCC1C2CCC(C2)C1(C)C (stereo not given) | 53 |
| CCCOCCC1=CCC2CC1C2(C)C (stereo not given) | 72.5 |
| CC1(C)C2CC=C(CCOC=O)C1C2 (stereo not given) | 56.1 |
| CCC(CCCC1C2CCC(C2)C1(C)C)OC(C)=O (stereo not given) | 50.2 |
| CCC(CCC1C2CCC(C2)C1(C)C)C(C)OC(C)=O (stereo not given) | 51.5 |
| CCC(=O)OCCC1C2CCC(C2)C1(C)C (stereo not given) | 56.8 |
| CCC(=O)OC1CC(C)CCC1C(C)C (stereo not given) | 40.5 |
| CCOCCC1=CCC2CC1C2(C)C (stereo not given) | 62.2 |
| CC(=O)OCCC1=CCC2CC1C2(C)C (stereo not given) | 60.8 |
| CCC(=O)OCCC1=CCC2CC1C2(C)C (stereo not given) | 64.4 |
| CC1(C)C2CC3OC3(C)C1C2 (stereo not given) | 37.8 |
| COCCC1=CCC2CC1C2(C)C (stereo not given) | 52.1 |
| CC(=O)OC1CC(C(C)(C)O)CC=C1C (stereo not given) | 81 |
| CCCC(CCCC1C2CCC(C2)C1(C)C)OC(C)=O (stereo not given) | 51.7 |
| CC1CCC(C(C)C)C(O)C1 (stereo not given) [MENTHOL] | 53 |
| CC1(C)C2CC=C(CCO)C1C2 (stereo not given) [Nopol] | 69 |
